According to patent publication US8877770B2, “Polymorph of rifaximin and process for the preparation thereof” (Clarochem Ireland Limited, priority 2011, dated 2014):
“Also recorded” adds a separate entry of the source.

Experiments:
[1] = Stability testing following conditioning in a humid atmosphere (80% RH, 24 hours); type: physicochemical; settings: 80% relative humidity
Method: Stability testing of the polymorph of Rifaximin following conditioning in a humid atmosphere.
Two samples of the polymorphic form κ of Rifaximin: 63/11A, which was obtained by means of the procedure of example 4, and 69/11B, which was obtained by means of the procedure of example 1, were maintained for 24 hours in an environment of relative humidity equal to 80%. At the end of the conditioning, an increase of approximately 3%, ascribable to the adsorption of water from the environment, was recorded.

[2] = Exposure at room temperature to variable relative humidity for 12 days and to RH 80% for 5 months; type: physicochemical
From the text: The polymorph obtained with the procedure described in example 2 was exposed at room temperature to variable relative humidity for a time period of 12 days, and then for a period of 5 months. When the humidity was increased, there were increases in the mass as shown in Table 2 for 12 days and Table 3 for 5 months.

Structure (SMILES): CO[C@H]1/C=C/O[C@@]2(C)Oc3c(C)c(O)c4c(O)c(c5c(nc6cc(C)ccn65)c4c3C2=O)NC(=O)/C(C)=C\C=C\[C@H](C)[C@H](O)[C@@H](C)[C@@H](O)[C@@H](C)[C@H](OC(C)=O)[C@@H]1C [polymorph κ, (2S,16Z,18E,20S,21S,22R,23R,24R,25S,26S,27S,28E)-5,6,21,23,25-pentahydroxy-27-methoxy-2,4,11,16,20,22,24,26-octamethyl-2,7-(epoxypentadeca-[1,11,13]-trienimmino)-benzofuro-[4,5-e]-pirido-[1,2-α]-benzimidazol-1,15(2H)-dione,25-acetate]
- XRPD pattern pre/post-conditioning [1]: substantially identical to one another; also recorded: without registering significant changes in the XRPD pattern
- increase of mass of the sample (adsorption of water) [1]: about 3%
- increase of mass of the sample (adsorption of water) ([1]; listed as 63/11A): approximately 3%
- increase of mass of the sample (adsorption of water) ([1]; listed as 69/11B): approximately 3%
- % water after exposure to 80% humidity (RH 80%) ([2]; 1 month): 4.38%
- % water after exposure to 80% humidity (RH 80%) ([2]; 2 months): 4.45%
- % water after exposure to 80% humidity (RH 80%) ([2]; 5 months): 4.55%
- value at which the increase of mass becomes stable ([2]; 80% humidity, stable after 4 days, unchanged after 5 months): approximately 4.5%
- % water after exposure to 80% humidity (RH 80%) ([2]; 4 days): 4.38%
- % water after exposure to 80% humidity (RH 80%) ([2]; 7 days): 4.44%
- % water after exposure to 80% humidity (RH 80%) ([2]; 14 days): 4.37%
- % water following exposure to 80% and 45% humidity ([2]; RH 80% 4 days, total days 4): 4.66%
- DRX pattern after conditioning ([2]; RH 80%, 5 months): correspond to that one shown in FIG. 1
- nature of the water adsorption process ([2]; cycling between RH 80% and RH 45%, 12 days): superficial and reversible
- % water after exposure to 80% humidity (RH 80%) ([2]; initial): 1.85%
- % water following exposure to 80% and 45% humidity ([2]; initial, total days 0): 1.85%
- maximum adsorption ([2]; prolonged exposure to relative humidity of 80%): 4.5%
- % water following exposure to 80% and 45% humidity ([2]; then RH 45% 1 day, total days 12): 3.43%
- % water following exposure to 80% and 45% humidity ([2]; then RH 45% 3 days, total days 7): 3.40%
- % water following exposure to 80% and 45% humidity ([2]; then RH 80% 4 days, total days 11): 4.52%
